Experimental data published in patent publication US9957273B2, “5-substituted 7- [4-(2-pyridyl)phenylmethylamino] -3-isopropylpyrazolo4,3-D]pyrimidine derivatives, use thereof as medicaments, and pharmaceutical compositions” (USTAV EXPERIMENTALNI BOTANIKY AV CR, V.V.I., priority 2015, dated 2018).

How the values were obtained:
HCT116 (colon carcinoma) = test: MTT cytotoxicity assay, solid cancer cell line HCT116; format: cell-based; details: Homo sapiens, HCT-116, 72 h, three days
Method: (§1) The compounds were assayed using the following cell lines: G361 (malignant melanoma), MCF7 (breast adenocarcinoma), PLC/PRF/5 (liver hepatoma), PANC-1 (pancreatic carcinoma) and HCT116 (colon carcinoma). All cell lines were grown in DMEM medium supplemented with fetal bovine serum and L-glutamine and maintained at 37° C. in a humidified atmosphere with 5% CO2. For cytotoxicity assays, 4000-10000 cells were seeded into each well of a 96 well plate, allowed to stabilize for at least 16 h and then tested compounds were added at various concentrations ranging from 100 to 0.01 μM in triplicates. After three days, MTT solution (5 mg/ml; Sigma, St. Louis, USA) was added to cells and medium was replaced with DMSO after five hours. The absorbance was measured at 620 nm by employing a microplate reader. MTT assays were repeated 3 times for each drug application and untreated cells were used as reference.

[1] = system: PLC/PRF/5 (liver hepatoma); test: MTT cytotoxicity assay, solid cancer cell line PLC/PRF/5; format: cell-based; details: Homo sapiens, PLC-PRF-5, 72 h, three days
Method: as §1

[2] = system: G361 (malignant melanoma); test: MTT cytotoxicity assay, solid cancer cell line G361; format: cell-based; details: Homo sapiens, G-361, 72 h, three days
Method: as §1

[3] = system: MCF7 (breast adenocarcinoma); test: MTT cytotoxicity assay, solid cancer cell line MCF7; format: cell-based; details: Homo sapiens, MCF7, 72 h, three days
Method: as §1

[4] = system: HL60 (human promyelocytic leukaemia); test: MTT cytotoxicity assay, leukemic cell line HL60; format: cell-based; details: Homo sapiens, HL-60, 72 h, three days
Excerpt: (§2) Cytotoxicity of the compounds is the major property determining their antileukemic efficacy in vivo. One of the parameters used, as the basis for cytotoxicity assays, is the metabolic activity of viable cells. For example, a microtiter assay, which uses (3-(4,5-dimethylthiazol-2-yl)-2,5-diphenyltetrazolium bromide (MTT), is widely used to quantitate cell proliferation and cytotoxicity. This assay is widely used in drug screening programs and in chemosensitivity testing. Because only metabolically active living cells reduce MTT to correspond purple formazan dye, these assays detect viable cells exclusively. The quantity of reduced MTT corresponds to the number of vital cells in the culture.
as §1, with “following leukemic” for “following”, “K562 (human chronic myelogenous leukaemia), HL60 (human promyelocytic leukaemia), CEM (human lymphoblastoid leukaemia), THP1 (human monocytic cell line), MV4; 11 (acute myelocytic leukemia).” for “G361 (malignant melanoma), MCF7 (breast adenocarcinoma), PLC/PRF/5 (liver hepatoma), PANC-1 (pancreatic carcinoma) and HCT116 (colon carcinoma).”, “RPMI” for “DMEM”, “2000-5000” for “4000-10000”, “of” for “of a”, “8” for “16”

CDK2/Cyclin E = target: T1, CDK2/Cyclin E (Homo sapiens, UniProt P24941); test: CDK2/Cyclin E kinase inhibition (33P-ATP, histone H1); format: biochemical; details: 15 μM ATP
T1 construct: made in house; host or cells: Sf9 insect cells (baculovirus)
Method: CDK2/Cyclin E kinase was produced in Sf9 insect cells via baculoviral infection and purified on a NiNTA column (Qiagen). The kinase reactions were assayed with 1 mg/mL histone H1 in the presence of 15 μM ATP, 0.05 μCi [γ-^33P]ATP and of the test compound in a final volume of 10 μL, all in a reaction buffer (60 mM HEPES-NaOH, pH 7.5, 3 mM MgCl2, 3 mM MnCl2, 3 μM Na-orthovanadate, 1.2 mM DTT, 2.5 μg/50 μl PEG20.000). CDK5/p35 was purchased from ProQinase GmbH. The kinase reactions were assayed with 1 mg/mL histone H1 in the presence of 0.15 μM ATP, 0.05 μCi [γ-^33P]ATP and of the test compound in a final volume of 10 μL, all in a reaction buffer (60 mM HEPES-NaOH, pH 7.5, 3 mM MgCl2, 3 mM MnCl2, 3 μM Na-orthovanadate, 1.2 mM DTT, 2.5 μg/50 μl PEG20.000).
(§3) The reactions were stopped by adding 5 μL of 3% aq H3PO4. Aliquots were spotted onto P-81 phosphocellulose (Whatman), washed 3× with 0.5% aq H3PO4 and finally air-dried.

[5] = system: THP1 (human monocytic cell line); test: MTT cytotoxicity assay, leukemic cell line THP1; format: cell-based; details: Homo sapiens, THP-1, 72 h, three days
Excerpt: as §2
as §1, with “following leukemic” for “following”, “K562 (human chronic myelogenous leukaemia), HL60 (human promyelocytic leukaemia), CEM (human lymphoblastoid leukaemia), THP1 (human monocytic cell line), MV4; 11 (acute myelocytic leukemia).” for “G361 (malignant melanoma), MCF7 (breast adenocarcinoma), PLC/PRF/5 (liver hepatoma), PANC-1 (pancreatic carcinoma) and HCT116 (colon carcinoma).”, “RPMI” for “DMEM”, “2000-5000” for “4000-10000”, “of” for “of a”, “8” for “16”

[6] = system: K562 (human chronic myelogenous leukaemia); test: MTT cytotoxicity assay, leukemic cell line K562; format: cell-based; details: Homo sapiens, K562, 72 h, three days
Excerpt: as §2
as §1, with “following leukemic” for “following”, “K562 (human chronic myelogenous leukaemia), HL60 (human promyelocytic leukaemia), CEM (human lymphoblastoid leukaemia), THP1 (human monocytic cell line), MV4; 11 (acute myelocytic leukemia).” for “G361 (malignant melanoma), MCF7 (breast adenocarcinoma), PLC/PRF/5 (liver hepatoma), PANC-1 (pancreatic carcinoma) and HCT116 (colon carcinoma).”, “RPMI” for “DMEM”, “2000-5000” for “4000-10000”, “of” for “of a”, “8” for “16”

[7] = system: HUVECs (human umbilical vein endothelial cells); test: HUVEC proliferation assay (crystal violet); format: cell-based; details: Homo sapiens, HUVEC, 72 h, read-out: Inhibition of proliferation (EC50)
Method: (§4) To verify that novel compounds have anti-vascularisation properties, we analyzed their influence on the proliferation and migration of HUVECs. HUVECs (human umbilical vein endothelial cells) were purchased from Promocell (Heidelberg, Germany) and cultured in endothelial cell growth medium (ECGM, Promocell, Heidelberg, Germany) containing 10% FCS (Biochrom, Berlin, Germany). Experiments were performed using cells at passage 3.
For proliferation assay, 1.5×10^3 HUVECs were cultured for 24 h. Afterwards, cells were either left untreated or treated with novel compounds for 72 h. Proliferation assay was performed using crystal violet as described previously (Koltermann et al. 2007, Cell Mol. Life Sci. 64:1715-1722).

[8] = system: MV4;11 (acute myelocytic leukemia); test: MTT cytotoxicity assay, leukemic cell line MV4;11; format: cell-based; details: Homo sapiens, MV4-11, 72 h, three days
Excerpt: as §2
as §1, with “following leukemic” for “following”, “K562 (human chronic myelogenous leukaemia), HL60 (human promyelocytic leukaemia), CEM (human lymphoblastoid leukaemia), THP1 (human monocytic cell line), MV4; 11 (acute myelocytic leukemia).” for “G361 (malignant melanoma), MCF7 (breast adenocarcinoma), PLC/PRF/5 (liver hepatoma), PANC-1 (pancreatic carcinoma) and HCT116 (colon carcinoma).”, “RPMI” for “DMEM”, “2000-5000” for “4000-10000”, “of” for “of a”, “8” for “16”

CDK5/p35 = target: T2, CDK5/p35 (Homo sapiens, UniProt Q00535); test: CDK5/p35 kinase inhibition (33P-ATP, histone H1); format: biochemical; details: 0.15 μM ATP
T2 construct: purchased ProQinase GmbH
Method: CDK2/Cyclin E kinase was produced in Sf9 insect cells via baculoviral infection and purified on a NiNTA column (Qiagen). […] CDK5/p35 was purchased from ProQinase GmbH.
as §3

[9] = system: PANC-1 (pancreatic carcinoma); test: MTT cytotoxicity assay, solid cancer cell line PANC-1; format: cell-based; details: Homo sapiens, PANC-1, 72 h, three days
Method: as §1

[10] = system: CEM (human lymphoblastoid leukaemia); test: MTT cytotoxicity assay, leukemic cell line CEM; format: cell-based; details: Homo sapiens, 72 h, three days
Excerpt: as §2
as §1, with “following leukemic” for “following”, “K562 (human chronic myelogenous leukaemia), HL60 (human promyelocytic leukaemia), CEM (human lymphoblastoid leukaemia), THP1 (human monocytic cell line), MV4; 11 (acute myelocytic leukemia).” for “G361 (malignant melanoma), MCF7 (breast adenocarcinoma), PLC/PRF/5 (liver hepatoma), PANC-1 (pancreatic carcinoma) and HCT116 (colon carcinoma).”, “RPMI” for “DMEM”, “2000-5000” for “4000-10000”, “of” for “of a”, “8” for “16”

[11] = system: HUVECs (human umbilical vein endothelial cells); test: HUVEC migration (scratch) assay; format: cell-based; details: 16 h, read-out: Inhibition of migration (EC50)
Method: as §4
For migration assay, confluent HUVECs were scratched with a pipette tip and immediately treated with either starvation medium M199 (serum-free, negative control; PAN Biotech) or full endothelial cell growth medium (positive control). After 16 h, cells were fixed with 3% formaldehyde and images were taken using the TILLvisON system (Lochham, Germany) connected to an Axiovert 200 microscope (Zeiss, Germany). Evaluation of pictures was made by S.CO LifeScience (Garching, Germany). Migration was quantified as the ratio of the area covered with cells and the area of the cell free wound.

[12] = system: breast carcinoma cell line MCF7; test: Cell cycle profile by BrdU/propidium iodide flow cytometry; format: cell-based; details: asynchronously growing MCF7, 24 h, FIG. 1
Method: Sub-confluent cells were treated with test compounds at different concentrations for 24 h. The cultures were pulse-labeled with […] 5-bromo-20-deoxyuridine (BrdU) for 30 min at 37° C. prior to harvesting. The cells were then washed in PBS, fixed with 70% ethanol, and denatured in 2 M HCl. Following neutralization, the cells were stained with anti-BrdU fluorescein-labeled antibodies, washed, stained with propidium iodide and analyzed by flow cytometry using a 488 nm laser

[13] = system: caspases 3 and 7 in K562 cells; test: Caspase-3/7 activity assay in K562 cells; format: cell-based, human; details: 24 hours, FIG. 2
Method: Measurement of proapoptotic properties of new compounds was based on quantification of enzymatic activities of caspases-3/7. Activity of cellular caspase-3/7 was measured according to Carrasco et al., 2003, BioTechniques, 34(5): 1064-67. Briefly, the cells were incubated in a 96-well plate overnight. Next day, the compounds in appropriate concentrations were added and cells were incubated for 24 hours. After incubation, 3× caspase-3/7 assay buffer (150 mM HEPES pH 7.4, 450 mM NaCl, 150 mM KCl, 30 mM MgCl2, 1.2 mM EGTA, 1.5% Nonidet P40, 0.3% CHAPS, 30% sucrose, 30 mM DTT, 3 mM PMSF) with 150 μM Ac-DEVD-AMC as a substrate (Sigma-Aldrich) was added to the wells and plates were incubated at 37° C. […]. The caspase activity was measured using Fluoroskan Ascent microplate reader (Labsystems) at 346 nm/442 nm (excitation/emission).

T2 sequence (Q00535 whole entry): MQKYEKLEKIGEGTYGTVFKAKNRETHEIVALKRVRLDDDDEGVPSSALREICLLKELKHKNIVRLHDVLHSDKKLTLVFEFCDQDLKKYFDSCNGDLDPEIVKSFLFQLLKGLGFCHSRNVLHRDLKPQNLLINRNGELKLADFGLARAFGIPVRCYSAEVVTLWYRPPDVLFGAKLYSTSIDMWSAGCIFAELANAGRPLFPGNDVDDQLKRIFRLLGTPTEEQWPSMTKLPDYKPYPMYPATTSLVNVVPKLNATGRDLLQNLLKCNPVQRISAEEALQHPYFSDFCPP
T2 sequence (Q15078 whole entry partner): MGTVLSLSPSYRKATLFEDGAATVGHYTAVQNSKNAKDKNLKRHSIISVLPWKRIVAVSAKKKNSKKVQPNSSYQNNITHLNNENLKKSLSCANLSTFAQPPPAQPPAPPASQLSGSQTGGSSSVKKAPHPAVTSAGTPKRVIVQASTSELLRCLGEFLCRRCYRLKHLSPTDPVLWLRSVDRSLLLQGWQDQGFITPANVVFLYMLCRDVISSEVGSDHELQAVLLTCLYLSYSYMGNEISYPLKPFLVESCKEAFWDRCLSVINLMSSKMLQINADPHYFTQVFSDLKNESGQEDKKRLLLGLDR

| SMILES | IC50 (HCT116 (colon carcinoma)) | IC50 [1] | IC50 [2] | IC50 [3] | IC50 [4] | IC50 (CDK2/Cyclin E) | IC50 [5] | IC50 [6] | EC50 [7] | IC50 [8] | IC50 (CDK5/p35) | IC50 [9] | IC50 [10] | EC50 [11] | effect on the cell cycle of MCF7 [12] | caspase-3/7 activity in K562 cells [13] |
| --- | --- | --- | --- | --- | --- | --- | --- | --- | --- | --- | --- | --- | --- | --- | --- | --- |
| CC(C)c1[nH]nc2c(NCc3ccc(-c4ccccn4)cc3)nc(NC3CCCCC3N)nc12 (stereo not drawn) [Compound 65] | 0.08 µM | 0.05 µM | 0.04 µM | 0.06 µM | 0.22 µM | 0.023 µM | 0.11 µM | 0.3 µM | 5 nM | 0.38 µM | 0.048 µM | 0.02 µM | 0.14 µM | 77 nM | – | – |
| CC(C)c1[nH]nc2c(NCc3ccc(-c4ccccn4)cc3)nc(N3CCSCC3)nc12 [Compound 15] | 0.69 µM | 0.2 µM | 0.42 µM | 0.53 µM | 0.6 µM | – | 0.31 µM | 0.59 µM | 153 nM | 0.87 µM | 0.114 µM | 0.34 µM | 0.23 µM | – | potently arrested cells in S, G2 and M phases | – |
| CC[C@@H](CO)Nc1nc(NCc2ccc(-c3ccccn3)cc2)c2n[nH]c(C(C)C)c2n1 [Compound 84] | – | – | – | – | – | 0.098 µM | – | – | – | – | – | – | – | – | potently arrested cells in S, G2 and M phases | – |
| CC(C)c1[nH]nc2c(NCc3ccc(-c4ccccn4)cc3)nc(NCCN(C)C)nc12 [Compound 47] | 0.34 µM | 0.24 µM | 0.47 µM | 0.23 µM | 0.09 µM | – | 0.06 µM | 0.13 µM | 181 nM | 0.12 µM | 2.14 µM | 0.2 µM | 0.07 µM | – | potently arrested cells in S, G2 and M phases | – |
| CC(C)c1[nH]nc2c(NCc3ccc(-c4ccccn4)cc3)nc(NCC(C)(C)O)nc12 [Compound 33] | 0.04 µM | 0.05 µM | 0.03 µM | 0.02 µM | 0.02 µM | – | 0.01 µM | 0.03 µM | 14 nM | 0.07 µM | 0.001 µM | 0.01 µM | 0.01 µM | 22 nM | – | potent dose-dependent activation of the caspases in nanomolar concentrations |
| CC(C)c1[nH]nc2c(NCc3ccc(-c4ccccn4)cc3)nc(NC[C@@H](C)O)nc12 [Compound 27] | 0.1 µM | 0.04 µM | 0.08 µM | 0.03 µM | 0.02 µM | 0.021 µM | 0.03 µM | 0.06 µM | 33 nM | 0.06 µM | – | 0.07 µM | 0.01 µM | 35 nM | – | – |
